Assay results from patent publication US20250345446A1 (Draupnir Bio ApS, priority 2022, published 2025).

The molecules below were run against T1, soluble ectodomain of sortilin-6his (Homo sapiens, UniProt Q99523, V650M) (assay: MST binding to soluble ectodomain of sortilin-6his). Conditions: Table 4; small molecule bifunctional compounds; MST.
T1 construct: the soluble ectodomain of sortilin-6his is measured by microscale thermophoresis (MST)
Protocol: At this point the plate was sealed with adhesive strip and placed on an Eppendorf thermomixer to shake at 600 rpm for 3 min before spinning on a Fisherbrand plate-spinner for 15 seconds and further incubation 1 hrs at 19° C. MST was measured on a Monolith NT. Automated (Nanotemper) in standard-treated capillaries at 5% LED-power and high MST-power. Dose-response was extracted from the raw thermographs at 20 sec hot-time and the dissociation constant was estimated by sigmoidal curve fitting in MO. Affinity analysis program (Nanotemper). All experiments were run in duplicates.

T1 sequence (Q99523 with tags, fused parts or gaps V650M): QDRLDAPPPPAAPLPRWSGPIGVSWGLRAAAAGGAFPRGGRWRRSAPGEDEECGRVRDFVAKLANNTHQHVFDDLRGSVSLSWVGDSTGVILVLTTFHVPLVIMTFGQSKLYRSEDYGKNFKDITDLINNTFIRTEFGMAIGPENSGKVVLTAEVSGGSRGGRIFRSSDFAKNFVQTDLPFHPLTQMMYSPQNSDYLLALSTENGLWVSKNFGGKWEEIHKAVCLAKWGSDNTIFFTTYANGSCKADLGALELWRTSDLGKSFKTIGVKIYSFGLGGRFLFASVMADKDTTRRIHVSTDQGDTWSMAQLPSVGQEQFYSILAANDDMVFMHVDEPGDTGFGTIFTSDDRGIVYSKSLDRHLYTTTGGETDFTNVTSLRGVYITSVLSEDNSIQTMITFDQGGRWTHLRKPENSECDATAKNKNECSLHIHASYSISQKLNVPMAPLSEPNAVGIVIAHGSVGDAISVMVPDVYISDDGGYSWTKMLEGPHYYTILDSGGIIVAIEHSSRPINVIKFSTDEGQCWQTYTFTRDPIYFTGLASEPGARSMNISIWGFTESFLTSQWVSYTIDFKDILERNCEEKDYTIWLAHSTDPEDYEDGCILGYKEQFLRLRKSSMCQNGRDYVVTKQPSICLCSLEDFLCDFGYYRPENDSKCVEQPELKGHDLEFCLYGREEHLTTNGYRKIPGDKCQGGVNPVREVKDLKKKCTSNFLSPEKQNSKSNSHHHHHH

| KD score, binding to sortilin (Kd) | Structure (SMILES) |
| --- | --- |
| 0 | CC(C)(C)CC[C@H](NC(=O)COc1cccc(Oc2ccc(C(=O)NCCOCCOCCOCCOCc3cn(CCCCCOc4ncc(-c5ccc6c(n5)N(Cc5cccnc5C#N)C(C)(C)C6=O)cn4)nn3)cn2)c1)C(=O)O [BF075, (2S)-2-[[2-[3-[[5-[2-[2-[2-[2-[[1-[5-[5-[1-[(2-cyano-3-pyridyl)methyl]-2,2-dimethyl-3-oxo-pyrrolo[2,3-b]pyridin-6-yl]pyrimidin-2-yl]oxypentyl]triazol-4-yl]methoxy]ethoxy]ethoxy]ethoxy]ethylcarbamoyl]-2-pyridyl]oxy]phenoxy]acetyl]amino]-5,5-dimethyl-hexanoic acid] |

Same assay, conditions: Table 4; small molecule bifunctional compounds; MST; read-out: KD score, binding to sortilin (Kd)

| Kd | Structure (SMILES) |
| --- | --- |
| 1 to 10 nM | CC(C)(C)CC[C@H](NC(=O)c1ccc(Oc2cccc(C(=O)NCCOCCOCCOc3ncc(-c4ccc5c(n4)N(Cc4cccnc4C#N)C(C)(C)C5=O)cn3)c2)nc1)C(=O)O [BF070, (2S)-2-[[6-[3-[2-[2-[2-[5-[1-[(2-cyano-3-pyridyl)methyl]-2,2-dimethyl-3-oxo-pyrrolo[2,3-b]pyridin-6-yl]pyrimidin-2-yl]oxyethoxy]ethoxy]ethylcarbamoyl]phenoxy]pyridine-3-carbonyl]amino]-5,5-dimethyl-hexanoic acid] |
| < 1 nM | CC(C)(C)CC[C@H](NC(=O)COc1cccc(Oc2ccc(C(=O)NCCOCCNc3ncc(-c4ccc5c(n4)N(Cc4cccnc4C#N)C(C)(C)C5=O)cn3)cn2)c1)C(=O)O [BF072, (2S)-2-[[2-[3-[[5-[2-[2-[[5-[1-[(2-cyano-3-pyridyl)methyl]-2,2-dimethyl-3-oxo-pyrrolo[2,3-b]pyridin-6-yl]pyrimidin-2-yl]amino]ethoxy]ethylcarbamoyl]-2-pyridyl]oxy]phenoxy]acetyl]amino]-5,5-dimethyl-hexanoic acid] |
| 1 to 10 nM | Cc1nc2cc(F)c(-c3cnc(OCCCCCn4cc(COCCOCCOCCOCCNC(=O)COc5cccc(Oc6ccc(C(=O)N[C@@H](CCC(C)(C)C)C(=O)O)cn6)c5)nn4)nc3)nc2c(N[C@H](C)c2cc(C#N)ccc2F)c1Cl [BF084, (2S)-2-[[6-[3-[2-[2-[2-[2-[2-[[1-[5-[5-[7-chloro-8-[[(1R)-1-(5-cyano-2-fluoro-phenyl)ethyl]amino]-3-fluoro-6-methyl-1,5-naphthyridin-2-yl]pyrimidin-2-yl]oxypentyl]triazol-4-yl]methoxy]ethoxy]ethoxy]ethoxy]ethylamino]-2-oxo-ethoxy]phenoxy]pyridine-3-carbonyl]amino]-5,5-dimethyl-hexanoic acid] |
| 1 to 10 nM | Cc1nc2cc(F)c(-c3cnc(OCCOCCOCCOCCOCCOCCOCCNC(=O)COc4cccc(Oc5ccc(C(=O)N[C@@H](CCC(C)(C)C)C(=O)O)cn5)c4)nc3)nc2c(N[C@H](C)c2cc(C#N)ccc2F)c1Cl [BF085, (2S)-2-[[6-[3-[2-[2-[2-[2-[2-[2-[2-[2-[5-[7-chloro-8-[[(1R)-1-(5-cyano-2-fluoro-phenyl)ethyl]amino]-3-fluoro-6-methyl-1,5-naphthyridin-2-yl]pyrimidin-2-yl]oxyethoxy]ethoxy]ethoxy]ethoxy]ethoxy]ethoxy]ethylamino]-2-oxo-ethoxy]phenoxy]pyridine-3-carbonyl]amino]-5,5-dimethyl-hexanoic acid] |
| 1 to 10 nM | Cc1nc2cc(F)c(-c3cnc(OCCOCCn4cc(COCC(=O)N5CC(OCCNC(=O)COc6cccc(Oc7ccc(C(=O)N[C@@H](CCC(C)(C)C)C(=O)O)cn7)c6)C5)nn4)nc3)nc2c(N[C@H](C)c2cc(C#N)ccc2F)c1Cl [BF088, (2S)-2-[[6-[3-[2-[2-[1-[2-[[1-[2-[2-[5-[7-chloro-8-[[(1R)-1-(5-cyano-2-fluoro-phenyl)ethyl]amino]-3-fluoro-6-methyl-1,5-naphthyridin-2-yl]pyrimidin-2-yl]oxyethoxy]ethyl]triazol-4-yl]methoxy]acetyl]azetidin-3-yl]oxyethylamino]-2-oxo-ethoxy]phenoxy]pyridine-3-carbonyl]amino]-5,5-dimethyl-hexanoic acid] |
| < 1 nM | Cc1nc2cc(F)c(-c3cnc(OCCN4CC(n5cc(COCC(=O)N6CC(OCCNC(=O)COc7cccc(Oc8ccc(C(=O)N[C@@H](CCC(C)(C)C)C(=O)O)cn8)c7)C6)nn5)C4)nc3)nc2c(N[C@H](C)c2cc(C#N)ccc2F)c1Cl [BF089, (2S)-2-[[6-[3-[2-[2-[1-[2-[[1-[1-[2-[5-[7-chloro-8-[[(1R)-1-(5-cyano-2-fluoro-phenyl)ethyl]amino]-3-fluoro-6-methyl-1,5-naphthyridin-2-yl]pyrimidin-2-yl]oxyethyl]azetidin-3-yl]triazol-4-yl]methoxy]acetyl]azetidin-3-yl]oxyethylamino]-2-oxo-ethoxy]phenoxy]pyridine-3-carbonyl]amino]-5,5-dimethyl-hexanoic acid] |
| < 1 nM | Cc1nc2cc(F)c(-c3cnc(OCCN4CCC(n5cc(COCC(=O)N6CCC(OCCNC(=O)COc7cccc(Oc8ccc(C(=O)N[C@@H](CCC(C)(C)C)C(=O)O)cn8)c7)CC6)nn5)CC4)nc3)nc2c(N[C@H](C)c2cc(C#N)ccc2F)c1Cl [BF090, (2S)-2-[[6-[3-[2-[2-[[1-[2-[[1-[1-[2-[5-[7-chloro-8-[[(1R)-1-(5-cyano-2-fluoro-phenyl)ethyl]amino]-3-fluoro-6-methyl-1,5-naphthyridin-2-yl]pyrimidin-2-yl]oxyethyl]-4-piperidyl]triazol-4-yl]methoxy]acetyl]-4-piperidyl]oxy]ethylamino]-2-oxo-ethoxy]phenoxy]pyridine-3-carbonyl]amino]-5,5-dimethyl-hexanoic acid] |
| < 1 nM | C[C@@H]1CN(c2ncc(-c3ccc4c(n3)N(Cc3cccnc3C#N)C(C)(C)C4=O)cn2)CCN1C(=O)Cn1cc(COCCOCCOCCOCCOCCOc2cccc(Oc3ccc(C(=O)N[C@@H](CCC(C)(C)C)C(=O)O)cn3)c2)nn1 [BF098, (2S)-2-[[6-[3-[2-[2-[2-[2-[2-[[1-[2-[(2R)-4-[5-[1-[(2-cyano-3-pyridyl)methyl]-2,2-dimethyl-3-oxo-pyrrolo[2,3-b]pyridin-6-yl]pyrimidin-2-yl]-2-methyl-piperazin-1-yl]-2-oxo-ethyl]triazol-4-yl]methoxy]ethoxy]ethoxy]ethoxy]ethoxy]ethoxy]phenoxy]pyridine-3-carbonyl]amino]-5,5-dimethyl-hexanoic acid] |
| < 1 nM | C[C@@H]1CN(c2ncc(-c3ccc4c(n3)N(Cc3cccnc3C#N)C(C)(C)C4=O)cn2)CCN1C(=O)CNC(=O)CCCCCOCCOCCNC(=O)c1cccc(Oc2ccc(C(=O)N[C@@H](CCC(C)(C)C)C(=O)O)cn2)c1 [BF100, (2S)-2-[[6-[3-[2-[2-[6-[[2-[(2R)-4-[5-[1-[(2-cyano-3-pyridyl)methyl]-2,2-dimethyl-3-oxo-pyrrolo[2,3-b]pyridin-6-yl]pyrimidin-2-yl]-2-methyl-piperazin-1-yl]-2-oxo-ethyl]amino]-6-oxo-hexoxy]ethoxy]ethylcarbamoyl]phenoxy]pyridine-3-carbonyl]amino]-5,5-dimethyl-hexanoic acid] |
| 1 to 10 nM | C[C@@H]1CN(c2ncc(-c3ccc4c(n3)N(Cc3cccnc3C#N)C(C)(C)C4=O)cn2)CCN1C(=O)Cn1cc(COCCOCCOCCOCCOc2cccc(Oc3ccc(C(=O)N[C@@H](CCC(C)(C)C)C(=O)O)cn3)c2)nn1 [BF101, (2S)-2-[[6-[3-[2-[2-[2-[2-[[1-[2-[(2R)-4-[5-[1-[(2-cyano-3-pyridyl)methyl]-2,2-dimethyl-3-oxo-pyrrolo[2,3-b]pyridin-6-yl]pyrimidin-2-yl]-2-methyl-piperazin-1-yl]-2-oxo-ethyl]triazol-4-yl]methoxy]ethoxy]ethoxy]ethoxy]ethoxy]phenoxy]pyridine-3-carbonyl]amino]-5,5-dimethyl-hexanoic acid] |
| < 1 nM | C[C@@H]1CN(c2ncc(-c3ccc4c(n3)N(Cc3cccnc3C#N)C(C)(C)C4=O)cn2)CCN1C(=O)Cc1cn(CCCCCCCCCn2cc(-c3cccc(Oc4ccc(C(=O)N[C@@H](CCC(C)(C)C)C(=O)O)cn4)c3)nn2)nn1 [BF104, (2S)-2-[[6-[3-[1-[9-[4-[2-[(2R)-4-[5-[1-[(2-cyano-3-pyridyl)methyl]-2,2-dimethyl-3-oxo-pyrrolo[2,3-b]pyridin-6-yl]pyrimidin-2-yl]-2-methyl-piperazin-1-yl]-2-oxo-ethyl]triazol-1-yl]nonyl]triazol-4-yl]phenoxy]pyridine-3-carbonyl]amino]-5,5-dimethyl-hexanoic acid] |
| 1 to 10 nM | C[C@@H]1CN(c2ncc(-c3ccc4c(n3)N(Cc3cccnc3C#N)C(C)(C)C4=O)cn2)CCN1C(=O)CNC(=O)CCCCCCCCn1cc(CCc2cccc(Oc3ccc(C(=O)N[C@@H](CCC(C)(C)C)C(=O)O)cn3)c2)nn1 [BF108, (2S)-2-[[6-[3-[2-[1-[9-[[2-[(2R)-4-[5-[1-[(2-cyano-3-pyridyl)methyl]-2,2-dimethyl-3-oxo-pyrrolo[2,3-b]pyridin-6-yl]pyrimidin-2-yl]-2-methyl-piperazin-1-yl]-2-oxo-ethyl]amino]-9-oxo-nonyl]triazol-4-yl]ethyl]phenoxy]pyridine-3-carbonyl]amino]-5,5-dimethyl-hexanoic acid] |
| < 1 nM | C[C@@H]1CN(c2ncc(-c3ccc4c(n3)N(Cc3cccnc3C#N)C(C)(C)C4=O)cn2)CCN1C(=O)Cn1cc(COCCOCCOCC(=O)N2CC(Oc3cccc(Oc4ccc(C(=O)N[C@@H](CCC(C)(C)C)C(=O)O)cn4)c3)C2)nn1 [BF111, (2S)-2-[[6-[3-[1-[2-[2-[2-[[1-[2-[(2R)-4-[5-[1-[(2-cyano-3-pyridyl)methyl]-2,2-dimethyl-3-oxo-pyrrolo[2,3-b]pyridin-6-yl]pyrimidin-2-yl]-2-methyl-piperazin-1-yl]-2-oxo-ethyl]triazol-4-yl]methoxy]ethoxy]ethoxy]acetyl]azetidin-3-yl]oxyphenoxy]pyridine-3-carbonyl]amino]-5,5-dimethyl-hexanoic acid] |
